Consider 1 compound from patent US10471059B2, “Compositions and methods of using tyrosine kinase inhibitors” (YALE UNIVERSITY, priority 2015, dated 2019).

One assay relates to Ptpn11^D61G/+ mice. Briefly: Quantitative RT-PCR of heart RNA, NS mice, postnatal dasatinib. The assay is classed as in vivo. To be noted: P56. The procedure:
FIG. 15, comprising FIG. 15a-15j, is a panel of images showing cardiomyopathy and cardiac fibrosis in Ptpn11^D61G/+ mice rescued by dasatinib. […] FIG. 15e is a graph showing relative expression of fibrosis marker gene, Col1a2. […] FIG. 15f is a graph showing relative expression of fibrosis marker gene, Col3a1. FIG. 15g is a graph showing relative expression of cardiac fetal gene, Myh6 (αMHC). FIG. 15h is a graph showing relative expression of cardiac fetal gene, Myh7 (βMHC). FIG. 15i is a graph showing relative expression of cardiac fetal gene, Anf. FIG. 15j is a graph showing relative expression of cardiac fetal gene, Bnp. The genes were measured by quantitative RT-PCR (n=6 for each group). […] (Two-way ANOVA test).
RNA Extraction and Quantitative Real-Time PCR Analysis—RNA was isolated from mice heart using an RNeasy kit (Qiagen, CA) according to the manufacturer's instructions. A total of 1 μg RNA was reverse transcribed to generate cDNA using a reverse transcriptase PCR kit (Applied Biosystems, CA). Real-time quantitative PCR was carried out in triplicate using the Applied Biosystems 7500 Fast real-time PCR system and SYBR green gene expression master mix with following primer pairs.
All relative gene expression levels were analyzed using the ΔCT method and normalized to 18S rRNA expression.

The subject of the next assay is tumor incidence. Conditions: mice; cited from earlier work.

Each structure is given as a SMILES string.

Take `Cc1nc(Nc2ncc(C(=O)Nc3c(C)cccc3Cl)s2)cc(N2CCN(CCO)CC2)n1.O` [Dasatinib, N-(2-chloro-6-methylphenyl)-2-[[6-[4-(2-hydroxyethyl)-1-piperazinyl]-2-methyl-4-pyrimidinyl]amino]-5-thiazole carboxamide monohydrate]: in the assay on Ptpn11^D61G/+ mice, the “Anp and Bnp mRNA expression” value is given as “completely rescued”; the MYH6 expression entry is “equivalent level of MYH6 expression in wild type and NS mice”; the MYH7 expression entry is “completely normalized”; the “mRNA expression of fibrotic genes Col1a2 and Col3a1” value was “reduced mRNA expression levels”. Further, the “dosage effective in preventing tumor incidence” value in the assay on tumor incidence is on record as around 20 mg/kg.
